The text below walks through data of ChEMBL document CHEMBL3588795, “GPCR crystal structures: Medicinal chemistry in the pocket” (Bioorg Med Chem, 2015).

Molecules are shown by their SMILES.

The assay concerns the target Metabotropic glutamate receptor 1 (Homo sapiens, UniProt Q13255). Put plainly: Negative allosteric modulation of human mGluR1alpha expressed in syrian hamster AV-12 cells assessed as inhibition of quisqualate-induced phosphoinositide hydrolysis. The format is cell-based, AV12.

Sequence of Metabotropic glutamate receptor 1 (Q13255 whole entry): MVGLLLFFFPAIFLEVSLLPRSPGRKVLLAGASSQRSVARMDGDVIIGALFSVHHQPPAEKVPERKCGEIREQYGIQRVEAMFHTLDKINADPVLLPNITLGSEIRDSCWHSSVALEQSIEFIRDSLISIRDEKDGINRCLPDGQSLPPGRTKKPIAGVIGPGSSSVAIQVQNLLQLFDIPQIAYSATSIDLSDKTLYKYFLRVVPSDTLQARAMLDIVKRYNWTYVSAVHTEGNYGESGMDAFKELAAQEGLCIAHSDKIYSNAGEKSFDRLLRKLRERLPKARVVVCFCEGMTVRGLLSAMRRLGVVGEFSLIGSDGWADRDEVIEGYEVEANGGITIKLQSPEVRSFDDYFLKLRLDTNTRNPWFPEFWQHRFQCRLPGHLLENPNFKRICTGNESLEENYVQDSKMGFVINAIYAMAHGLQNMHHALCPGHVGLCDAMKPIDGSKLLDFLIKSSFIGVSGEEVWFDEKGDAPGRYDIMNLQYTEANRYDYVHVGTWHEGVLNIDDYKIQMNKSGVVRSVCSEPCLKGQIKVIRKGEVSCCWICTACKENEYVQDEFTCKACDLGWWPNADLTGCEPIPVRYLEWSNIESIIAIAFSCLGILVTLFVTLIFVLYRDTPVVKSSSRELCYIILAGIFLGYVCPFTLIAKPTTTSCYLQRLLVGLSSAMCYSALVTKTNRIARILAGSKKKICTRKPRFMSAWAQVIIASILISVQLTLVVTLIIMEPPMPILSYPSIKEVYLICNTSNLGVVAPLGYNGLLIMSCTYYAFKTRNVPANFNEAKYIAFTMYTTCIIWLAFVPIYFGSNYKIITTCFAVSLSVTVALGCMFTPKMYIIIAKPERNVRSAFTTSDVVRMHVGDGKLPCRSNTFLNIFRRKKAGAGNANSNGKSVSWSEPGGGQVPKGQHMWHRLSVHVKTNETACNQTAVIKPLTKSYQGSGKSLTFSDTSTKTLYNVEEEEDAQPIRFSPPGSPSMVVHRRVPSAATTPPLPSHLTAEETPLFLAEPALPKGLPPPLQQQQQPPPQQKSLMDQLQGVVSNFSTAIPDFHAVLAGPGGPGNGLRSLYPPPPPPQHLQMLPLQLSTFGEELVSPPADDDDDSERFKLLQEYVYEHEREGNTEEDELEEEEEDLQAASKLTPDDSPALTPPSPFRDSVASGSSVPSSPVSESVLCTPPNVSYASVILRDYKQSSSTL

In the case of `Cc1cc(C(=O)O)ccc1[C@H](N)C(=O)O`, the concentration for half-maximal inhibition (IC50) (in general, the point on the concentration scale where inhibition reaches its midpoint) stood at 8 µM.
